Measurements taken from US20080045584A1, “Use of Docetaxel for Treating Hepatocellular Carcinoma” (priority 1999, published 2008).
Read-outs that look alike come from different tables or passages of the source.

Key:
Hep 3B cells = conditions: 0.01 μM, 72 hours
Experimental: (§1) The experiments detailed below involve human hepatoma cell lines Hep3B (ATCC designation HB 8064), HepG2 (ATCC designation HB 8065) and HA22T/VGH, and murine hepatoma cell line Hepa 1-6. These cells were cultured in DMEM (GIBCO, BRL) containing 10% fetal bovine serum (Hyclone), 0.01 mg/ml gentamycin and 0.1 mM non-essential amino acid. Cells were grown in a CO2 incubator at 37° C., with 5% CO2 and 95% filtered air.
(§2) In the experiments detailed below the above hepatoma cells were treated with different concentrations of paclitaxel (0.001-10 μM) and docetaxel (0.001-10 μM) for 24 hours and 72 hours. Paclitaxel was dissolved in dimethylsulfoxide (DMSO) and docetaxel was dissolved in ethanol as stock solutions. The final concentration of vehicle was less than 0.1%.
(§3) Cells were cultured in a 96 well cell culture cluster (COSTAR) at a density of 4×10^4 cells/ml. After drug treatment for 24 hours or 72 hours, medium was discarded and replaced with an equal volume (100 μl) of fresh medium containing MTT (0.456 mg/ml; 3-[4,5-Dimethylthiazol-2-yl]2,5-diphenyl-tetrazolium bromide) and incubated for 1.5 hours at 37° C. The fresh medium was then discarded, and 100 μl DMSO was then added. Cell viability was determined by colorimetric comparison by reading OD values from a microplate reader (SPECTRA MAX250) at an absorption wavelength of 570 nm.
(§4) Data are the mean i standard error of mean from duplicate samples of three independent experiments.

Hepa 1-6 cells [1] = conditions: Hepa 1-6, 1 μM
Experimental: as §1, §2, §3, §4

Hepa 1-6 cells [2] = assay: Flow cytometric analysis of DNA content (cell cycle, sub-G0/G1); type: cell-based, murine
Experimental: Lysing buffer (0.5% Triton X-100, 0.2 μg/ml Na2EDTA.2H2O, and 1% bovine serum albumin in PBS) was added to the cell pellets which were then left on ice for 15 minutes. 100% methanol pre-cooled to −20° C. was then added to the mixture, which was then centrifuged at 300×g for 5 minutes. The supernatant was discarded and the cell pellet was washed with PBS. The washed pellet was stained with a DNA staining solution (50 μg/ml propidium iodide, and 5 kunitz/ml of RNase A) for 30 minutes at 4° C. in the dark. The DNA content of each cell was measured using a Becton Dickinson FACS Calibur flow cytometer as set out below.
Cells (10000) were analyzed on a Becton Dickinson FACS Calibur flow cytometer using an argon-ion laser (15 mWatt) with incident beam at 488 nm. For PI exclusion assay, red fluorescence was collected through a 585 nm filter and the cell debris signals were removed by FSC-SSC gating. Data were acquired and analyzed using FACS/CELL Quest software on a Power Macintosh 7600/120 computer. Apoptotic cells and cells at specific cycle phases were determined by ModFit LT software.
Table 1 gives figures for cell membrane permeability of the hepatoma cells, following treatment with paclitaxel and docetaxel. Table 2 details the percentage of apoptotic (sub-G0/G1) cells found after paclitaxel and docetaxel treatment.

CC(=O)O[C@@]12CO[C@@H]1C[C@H](O)[C@@]1(C)C(=O)[C@H](O)C3=C(C)[C@@H](OC(=O)[C@H](O)[C@@H](NC(=O)OC(C)(C)C)c4ccccc4)C[C@@](O)([C@@H](OC(=O)c4ccccc4)[C@H]21)C3(C)C [Docetaxel]
reduction of viability (Hep 3B cells): 37.06%
maximum cytotoxicity (Hepa 1-6 cells [1]; 24 hours): 65.34%
maximum cytotoxicity (Hepa 1-6 cells [1]; 72 hours): 30.71%
% of apoptotic (sub-G0/G1) cells (Hepa 1-6 cells [2]; Hepa 1-6, 24 hrs, 0.01 mM (text: μM)): 52.81%
% of apoptotic (sub-G0/G1) cells (Hepa 1-6 cells [2]; Hepa 1-6, 24 hrs, 0.1 mM (text: μM)): 50.76%
% of apoptotic (sub-G0/G1) cells (Hepa 1-6 cells [2]; Hepa 1-6, 24 hrs, 1 mM (text: μM)): 53.8%
% of apoptotic (sub-G0/G1) cells (Hepa 1-6 cells [2]; Hepa 1-6, 72 hrs, 0.01 mM (text: μM)): 31.25%
% of apoptotic (sub-G0/G1) cells (Hepa 1-6 cells [2]; Hepa 1-6, 72 hrs, 0.1 mM (text: μM)): 53.95%
% of apoptotic (sub-G0/G1) cells (Hepa 1-6 cells [2]; Hepa 1-6, 72 hrs, 1 mM (text: μM)): 62.49%
